Reference: ChEMBL document CHEMBL1201862, “PubChem BioAssay data set” (2004)
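The compound was tested at five concentrations on cells cultured in 96-well plates, with a 48-hour exposure period. GI50 is the concentration that inhibits growth by half.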 Active and inactive are the calls of the source. Rule as the data show it: active = GI50 up to about 1.1 µM and inactive = higher.

Columns and labels:
Experiment in all cases: NCI anticancer screen, dose series, 48 h
HCT-116 = test system: HCT-116
MDA-MB-435 = test system: MDA-MB-435
SW-620 = test system: SW-620
OVCAR-5 = test system: OVCAR-5
SR = test system: SR
OVCAR-8 = test system: OVCAR-8
MOLT-4 = test system: MOLT-4
ACHN = test system: ACHN
SNB-19 = test system: SNB-19
CCRF-CEM = test system: CCRF-CEM
U-251 = test system: U-251
HOP-92 = test system: HOP-92
M14 = test system: M14
NCI-H522 = test system: NCI-H522
SF-539 = test system: SF-539
NCI-H226 = test system: NCI-H226
MDA-MB-231 = test system: MDA-MB-231
HCT-15 = test system: HCT-15
RPMI-8226 = test system: RPMI-8226
NCI/ADR-RES = test system: NCI/ADR-RES

Structure (SMILES)	GI50 (HCT-116)	GI50 (MDA-MB-435)	GI50 (SW-620)	GI50 (OVCAR-5)	GI50 (SR)	GI50 (OVCAR-8)	GI50 (MOLT-4)	GI50 (ACHN)	GI50 (SNB-19)	GI50 (CCRF-CEM)	GI50 (U-251)	GI50 (HOP-92)	GI50 (M14)	GI50 (NCI-H522)	GI50 (SF-539)	GI50 (NCI-H226)	GI50 (MDA-MB-231)	GI50 (HCT-15) [µM]	GI50 (RPMI-8226)	GI50 (NCI/ADR-RES)
COc1ccc(/N=C\c2ccc(N(CCC#N)CCC#N)cc2)cc1	63.8 µM (inactive)	32.8 µM (inactive)	61.1 µM (inactive)	55.5 µM (inactive)	90.8 µM (inactive)	74.6 µM (inactive)	66.5 µM (inactive)	26.7 µM (inactive)	90.2 µM (inactive)	48.1 µM (inactive)	> 83.2 µM (inactive)	99.3 µM (inactive)	28.1 µM (inactive)	> 95.1 µM (inactive)	27.9 µM (inactive)	> 100 µM (inactive)	> 100 µM (inactive)	17.4	59 µM (inactive)	> 100 µM (inactive)
COc1ccc2c(C)cc(N/N=C/c3ccc(C)s3)nc2c1	5.92 µM (inactive)	16.3 µM (inactive)	13.1 µM (inactive)	12.6 µM (inactive)	5.18 µM (inactive)	15.2 µM (inactive)	5.94 µM (inactive)	18 µM (inactive)	25.4 µM (inactive)	5.37 µM (inactive)	13.7 µM (inactive)	19.5 µM (inactive)	6.55 µM (inactive)	3.45 µM (inactive)	13.6 µM (inactive)	13 µM (inactive)	6.49 µM (inactive)	4.21	3.55 µM (inactive)	9.82 µM (inactive)
CC(=O)OCC1OC(NC(=S)Nn2c(-c3ccccc3)nc3ccccc3c2=O)C(OC(C)=O)C(OC(C)=O)C1OC(C)=O (stereo not given)	> 100 µM (inactive)	> 100 µM (inactive)	> 100 µM (inactive)	> 100 µM (inactive)	35.6 µM (inactive)	> 100 µM (inactive)	46.9 µM (inactive)	> 100 µM (inactive)	> 100 µM (inactive)	38.5 µM (inactive)	> 100 µM (inactive)	38.4 µM (inactive)	62.7 µM (inactive)	45.5 µM (inactive)	37.8 µM (inactive)	14.7 µM (inactive)	81.5 µM (inactive)	> 100	> 100 µM (inactive)	> 100 µM (inactive)
CCOC(=O)NC(C(=O)OCC)(N1CCN(c2cc3c(cc2F)c(=O)c(C(=O)O)cn3CC)CC1)C(F)(F)F (stereo not given)	> 100 µM (inactive)	26.1 µM (inactive)	> 100 µM (inactive)	> 100 µM (inactive)	> 100 µM (inactive)	6.1 µM (inactive)	> 100 µM (inactive)	> 100 µM (inactive)	> 100 µM (inactive)	> 100 µM (inactive)	58.1 µM (inactive)	> 100 µM (inactive)	> 100 µM (inactive)	> 100 µM (inactive)	> 100 µM (inactive)	> 100 µM (inactive)	> 100 µM (inactive)	> 100	> 100 µM (inactive)	> 100 µM (inactive)
CC1CC2OC(=N)C1(C#N)C2(C#N)C#N (stereo not given)	16.3 µM (inactive)	34 µM (inactive)	18.2 µM (inactive)	21.6 µM (inactive)	25.3 µM (inactive)	25.1 µM (inactive)	24.7 µM (inactive)	31.4 µM (inactive)	34.8 µM (inactive)	4.94 µM (inactive)	27.9 µM (inactive)	17.9 µM (inactive)	29.6 µM (inactive)	13.5 µM (inactive)	22.5 µM (inactive)	38.4 µM (inactive)	17.2 µM (inactive)	14	16.4 µM (inactive)	29.1 µM (inactive)
Cl/C(=C\C=N\c1ccc(I)cc1)c1ccc2ccccc2c1	16.1 µM (inactive)	9.42 µM (inactive)	19.1 µM (inactive)	34.6 µM (inactive)	3.91 µM (inactive)	17.4 µM (inactive)	5.13 µM (inactive)	10.5 µM (inactive)	18.3 µM (inactive)	7.29 µM (inactive)	16.4 µM (inactive)	41.6 µM (inactive)	14.3 µM (inactive)	27.2 µM (inactive)	19.9 µM (inactive)	20.8 µM (inactive)	14.5 µM (inactive)	12.6	17.3 µM (inactive)	14.9 µM (inactive)
